The results in this text go back to patent US7998978B2 (Pfizer Inc., priority 2006, dated 2011).

Structures are written as SMILES.

The first assay deals with T1, JNK1α1 (Homo sapiens, UniProt P45983).
T1 construct: catalytic domain containing amino acids 1-364 and N-terminal hexahistidine tag; hexahistidine (His6) (N); made in house; host or cells: E. coli BL21 (DE3)
T1 sequence (P45983 1-364): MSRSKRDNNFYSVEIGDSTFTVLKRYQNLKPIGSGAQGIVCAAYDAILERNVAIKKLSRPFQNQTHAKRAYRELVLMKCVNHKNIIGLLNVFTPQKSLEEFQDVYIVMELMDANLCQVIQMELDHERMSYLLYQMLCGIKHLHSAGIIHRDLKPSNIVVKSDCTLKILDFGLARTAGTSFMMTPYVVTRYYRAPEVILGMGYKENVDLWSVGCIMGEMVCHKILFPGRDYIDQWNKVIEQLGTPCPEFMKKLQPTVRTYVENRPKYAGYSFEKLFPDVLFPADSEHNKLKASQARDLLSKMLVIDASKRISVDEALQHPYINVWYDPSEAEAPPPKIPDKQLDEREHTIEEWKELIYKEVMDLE
In words: Coupled spectrophotometric (PK/LDH) JNK1α1 assay: % inhibition and Ki determination. In kind it is biochemical. Particulars: @1 uM; read-out: % Inhibition JNK-1. An outline of the steps:
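Initial rates were taken from the absorbance decrease at 340 nm at 30° C. Ki was fitted with a tight-binding model over 11 concentrations (top 100 μM); single-point inhibition was tested at 1 or 10 μM.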
The inhibition is the share of the control response that was lost under treatment. As for `O=C(NCCO)c1ccc2cnc(NC3CCC3)nc2c1` [Example 430, 2-(cyclobutylamino)-N-(2-hydroxyethyl)quinazoline-7-carboxamide], the inhibition at 1 µM is 11%.
Take `Cc1cc(CNC(=O)c2cccc3cnc(N[C@H]4CC[C@H](O)CC4)nc23)nn1C` [Example 521, N-[(1,5-dimethyl-1H-pyrazol-3-yl)methyl]-2-[(trans-4-hydroxycyclohexyl)amino]quinazoline-8-carboxamide]: the inhibition at 1 µM worked out at 49%.

Staying with this assay, now noted: @10 uM; read-out: % Inhibition JNK-1.
In the case of `c1ncc(-c2ccc(CNc3cc4cc(-c5cn[nH]c5)ccc4cn3)cc2)cn1` [Example 235, 6-(1H-pyrazol-4-yl)-N-(4-pyrimidin-5-ylbenzyl)isoquinolin-3-amine], the inhibition at 10 µM came to 15%.
In the case of `Cn1ccnc1-c1ccc(CNc2cc3cc(-c4cn[nH]c4)ccc3cn2)cc1` [Example 230, N-[4-(1-methyl-1H-imidazol-2-yl)benzyl]-6-(1H-pyrazol-4-yl)isoquinolin-3-amine], the inhibition at 10 µM was found to be 43%.
As to `c1ccc(Cn2cccn2)c(CNc2cc3cc(-c4cn[nH]c4)ccc3cn2)c1` [Example 233, 6-(1H-pyrazol-4-yl)-N-[2-(1H-pyrazol-1-ylmethyl)benzyl]isoquinolin-3-amine], the inhibition at 10 µM came to 46%.
On the same count and under the same terms, as for `Cc1noc(CCNC(=O)c2cccc3cnc(N[C@H]4CC[C@H](O)CC4)nc23)n1` [Example 523, 2-[(trans-4-hydroxycyclohexyl)amino]-N-[2-(3-methyl-1,2,4-oxadiazol-5-yl)ethyl]quinazoline-8-carboxamide], the figure is 44%.

Still in this assay, the particulars now being: JNK-1.
As usually defined, the Ki is a measure of affinity in units of concentration, obtained from inhibition or displacement. A high value points to weaker binding. `CC(C)NC(=O)c1ccc2cnc(N[C@H]3CC[C@H](O)CC3)nc2c1` [Example 83, 2-[(trans-4-hydroxycyclohexyl)amino]-N-isopropylquinazoline-7-carboxamide] came in with a Ki of 0.247 µM.
The compound `O=C(NC1CCc2ccccc21)c1ccc2cnc(N[C@H]3CC[C@H](O)CC3)nc2c1` (stereo partly drawn) [Example 94, N-(2,3-dihydro-1H-inden-1-yl)-2-[(trans-4-hydroxycyclohexyl)amino]quinazoline-7-carboxamide] had a Ki of 0.148 µM.
Regarding `O=C(NCCCO)c1ccc2cnc(N[C@H]3CC[C@H](O)CC3)nc2c1` [Example 338, 2-[(trans-4-hydroxycyclohexyl)amino]-N-(3-hydroxypropyl)quinazoline-7-carboxamide], the affinity, expressed as Ki, was 0.637 µM.
Consider `O=C(Cc1ccccc1)Nc1cc2cc(-c3cn[nH]c3)ccc2cn1` [Example 6, 2-phenyl-N-[6-(1H-pyrazol-4-yl)isoquinolin-3-yl]acetamide], for which the inhibitory constant (Ki) turned out to be 0.039 µM.
Compound `O=C(CCc1cc(Cl)no1)Nc1cc2cc(-c3cn[nH]c3)ccc2cn1` [Example 12, 3-(3-chloroisoxazol-5-yl)-N-[6-(1H-pyrazol-4-yl)isoquinolin-3-yl]propanamide] displayed an inhibition constant Ki of 0.029 µM.
Regarding `O=C(NCCc1ccccc1)c1ccc2cnc(N[C@H]3CC[C@H](O)CC3)nc2c1` [Example 63, 2-[(trans-4-hydroxycyclohexyl)amino]-N-(2-phenylethyl)quinazoline-7-carboxamide], the Ki was 0.46 µM.
`Cc1ccc2cnc(N[C@H]3CC[C@H](O)CC3)nc2c1OCC(=O)N(C)CCO` [Example 212, 2-({2-[(trans-4-hydroxycyclohexyl)amino]-7-methylquinazolin-8-yl}oxy)-N-(2-hydroxyethyl)-N-methylacetamide] returned a Ki of 1.95 µM.
In turn, `O=C(NCC1CCOC1)c1cccc2cnc(N[C@H]3CC[C@H](O)CC3)nc12` (stereo partly drawn) [Example 107, 2-[(trans-4-hydroxycyclohexyl)amino]-N-(tetrahydrofuran-3-ylmethyl)quinazoline-8-carboxamide] had an inhibitory constant (Ki) of 0.25 µM.
As for `O=C(NCC1CCCOC1)c1ccc2cnc(N[C@H]3CC[C@H](O)CC3)nc2c1` (stereo partly drawn) [Example 92, 2-[(trans-4-hydroxycyclohexyl)amino]-N-(tetrahydro-2H-pyran-3-ylmethyl)quinazoline-7-carboxamide], the affinity, expressed as Ki, was 0.379 µM.
Take `O=C(N[C@H](CO)CC1CCCCC1)c1ccc2cnc(N[C@H]3CC[C@H](O)CC3)nc2c1` [Example 386, N-[(1S)-2-cyclohexyl-1-(hydroxymethyl)ethyl]-2-[(trans-4-hydroxycyclohexyl)amino]quinazoline-7-carboxamide]: the Ki is 0.271 µM.
As for `O=C(NCC1CCCO1)c1ccc2cnc(N[C@H]3CC[C@H](O)CC3)nc2c1` (stereo partly drawn) [Example 340, 2-[(trans-4-hydroxycyclohexyl)amino]-N-(tetrahydrofuran-2-ylmethyl)quinazoline-7-carboxamide], the Ki was found to be 0.836 µM.
The compound `c1ccc2nc(CNc3cc4cc(-c5cn[nH]c5)ccc4cn3)cnc2c1` [Example 222, 6-(1H-pyrazol-4-yl)-N-(quinoxalin-2-ylmethyl)isoquinolin-3-amine] returned a Ki of 2.95 µM.
`O=C(N[C@H](CO)CC1CCCCC1)c1ccc2cnc(NC3CCCCC3)nc2c1` [Example 393, 2-(cyclohexylamino)-N-[(1S)-2-cyclohexyl-1-(hydroxymethyl)ethyl]quinazoline-7-carboxamide] registered a Ki of 0.387 µM.
The same measure, in the same setting: as for `O=C(Nc1cc2cc(-c3cn[nH]c3)ccc2cn1)c1ccccc1` [Example 17, N-[6-(1H-pyrazol-4-yl)isoquinolin-3-yl]benzamide], the figure is above 0.03 µM; as for `O[C@H]1CC[C@H](Nc2ncc3ccc(OCCN4CCOCC4)cc3n2)CC1` [Example 154, trans-4-{[7-(2-morpholin-4-ylethoxy)quinazolin-2-yl]amino}cyclohexanol], 0.403 µM; as for `c1ccc2nc(NC3CCCCC3)ncc2c1` [Example 147], 0.46 µM.
`CS(=O)(=O)N[C@H]1CC[C@H](Nc2ncc3cccc(OC4CCOCC4)c3n2)CC1` [Example 182, N-(trans-4-{[8-(tetrahydro-2H-pyran-4-yloxy)quinazolin-2-yl]amino}cyclohexyl)methanesulfonamide] gave a Ki of 0.146 µM.
In the case of `CCC[C@@H](CO)NC(=O)c1ccc2cnc(NC3CCCCC3)nc2c1` [Example 376, 2-(cyclohexylamino)-N-[(1S)-1-(hydroxymethyl)butyl]quinazoline-7-carboxamide], the Ki turned out to be 0.139 µM.
In turn, `CC(C)NC(=O)c1cccc2cnc(N[C@H]3CC[C@H](O)CC3)nc12` [Example 103, 2-[(trans-4-hydroxycyclohexyl)amino]-N-isopropylquinazoline-8-carboxamide] registered a Ki of 0.176 µM.
With `O=C(NC(CO)c1ccccc1)c1ccc2cnc(NC3CCC3)nc2c1` (centres unmarked) [Example 383, 2-(cyclobutylamino)-N-(2-hydroxy-1-phenylethyl)quinazoline-7-carboxamide], affinity was put at a Ki of 0.2 µM.
The same measure, in the same setting: as for `COc1ccc(NC(=O)c2ccc3cnc(N[C@H]4CC[C@H](O)CC4)nc3c2)cn1` [Example 349, 2-[(trans-4-hydroxycyclohexyl)amino]-N-(6-methoxypyridin-3-yl)quinazoline-7-carboxamide], the figure is 1.01 µM; as for `COCCC(=O)Nc1cc2cc(-c3cn[nH]c3)ccc2cn1` [Example 27, 3-methoxy-N-[6-(1H-pyrazol-4-yl)isoquinolin-3-yl]propanamide], 0.004 µM.
The compound `CC(C)[C@@H](CO)NC(=O)c1ccc2cnc(NC3CCCCC3)nc2c1` [Example 389, 2-(cyclohexylamino)-N-[(1S)-1-(hydroxymethyl)-2-methylpropyl]quinazoline-7-carboxamide] registered an inhibitory constant (Ki) of 0.318 µM.
